Columns and labels:
HA–M2R = target: T1, HA–M2R (Homo sapiens, UniProt P08172); test: STED nanoscopy labeling of living HEK 293T cells; assay type: cell-based; conditions: 300 nM
T1 sequence (P08172 1-466): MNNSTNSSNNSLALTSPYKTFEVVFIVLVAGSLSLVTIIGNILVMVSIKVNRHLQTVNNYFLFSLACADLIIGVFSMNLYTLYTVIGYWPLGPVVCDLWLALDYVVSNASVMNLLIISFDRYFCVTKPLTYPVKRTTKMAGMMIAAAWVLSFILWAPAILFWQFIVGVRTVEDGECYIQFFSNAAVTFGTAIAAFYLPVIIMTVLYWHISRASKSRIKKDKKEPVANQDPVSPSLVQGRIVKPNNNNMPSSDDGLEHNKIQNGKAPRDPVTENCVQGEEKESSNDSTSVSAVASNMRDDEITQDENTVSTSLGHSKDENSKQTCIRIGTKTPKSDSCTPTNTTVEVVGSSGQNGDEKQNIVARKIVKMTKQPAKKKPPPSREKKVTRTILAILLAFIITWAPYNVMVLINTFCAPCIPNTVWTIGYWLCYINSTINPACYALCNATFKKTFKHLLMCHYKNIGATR
From the text: As STED microscopy is used for the deeper investigation of cellular processes even at the subcellular level, we challenged the fluorescent probe 33 in STED nanoscopy (Figure ). For STED, we used the same transfected cells as in the case of two-photon microscopy. Using the STED function and the available largest magnification objective, we observed improvement of optical resolution.
Figure S7. […] Scale bar:
20 μm. Representative images of two independent experiments are shown.
Figure S8. […] Scale bar:
50 μm. Representative images of two independent experiments are shown.
Confocal and STED microscopy
Confocal and STED images were acquired using a Leica TCS SP8 STED 3× inverse […]
well IBIDI chamber slides. The samples were scanned with a Leica HC PL Fluotar 20x/0.55 objective and a PMT detector. A 488 nm laser was used for the excitation of the fluorescent dye OG488 for the confocal imaging, and the spectral detection parameters were 500-550 nm.
(1 picture or pasted object on this page, not shown here)
Simultaneous transmission light imaging was used to detect the cells. For STED imaging, we used the same excitation laser and a Leica HC PL APO 100×/1.40 oil immersion objective and a Leica HyD detector, which was completed with a 660 nm STED (1.5 W, continuous wave) laser for depletion (at 1.17–2.48 × 109 W mm−2 nominal intensity with an output laser power of 1.2 W/32 nm × 32 nm pixel size). […]

M2R = target: T2, M2R (Homo sapiens, UniProt P08172); test: BRET-based TRUPATH GoA activation assay, antagonism of carbachol-induced G protein activation; assay type: cell-based
T2 sequence (P08172 1-466): T1 sequence (P08172 1-466)

hM2R = target: T3, hM2R (Homo sapiens, UniProt P08172); test: Radioligand competition binding, [3H]-scopolamine (N-methyl), CHO cell membranes, hM2R; conditions: mean ± SD, n = 3; membranes from CHO cells transfected with hM2R; read-out: Receptor Ki M2
T3 construct: expressed in transfected cells; host or cells: CHO cell membranes
T3 sequence (P08172 1-466): T1 sequence (P08172 1-466)

[1] = Photophysical measurements and photostability; assay type: physicochemical
Procedure: Next, we investigated the photophysical properties of the fluorescent probe 33. In acetonitrile, the probe has an absorption maximum at 520 nm and a fluorescence maximum at 547 nm with a Stokes shift of 27 nm. […] The dye was pH sensitive, with intensity increasing at higher pH. Following a literature procedure, we examined the effect of protein (BSA) on the ligand. […]
Photophysical Measurements
Absorbance measurements were performed using a Jasco V-750 Spectrophotometer standard cell quartz cuvette with 1 cm light path length, 1 nm bandwidth, 400 nm/min recording speed) operating at 21 °C. The fluorescence measurements were carried out on a Jasco FP8300 spectrofluorometer in a standard cell quartz cuvette (1 cm light path length). Both the excitation and emission slit widths were both set to 2.5 nm, and the scanning speed was 400 nm/min. Pure solvents were used for blank correction. Absorbance spectra and excitation spectra were recorded in the range of […]. For the emission spectra, we excited the sample at the excitation maximum, and measured it from excitation maximum plus 10 nm to 800 nm.
Quantum yields were calculated by recording the fluorescence spectra of a series of different concentrations. The gradient of the integrated fluorescence intensities plotted against absorbance at the excitation wavelength was used for the calculation of the quantum yields:
The compound 33 was excited at 360 nm, OG488-NHS was used as reference (Φwater = […]
Solvent screening measurements were conducted using 5 μM solutions of the fluorescent probe 33 in various solvents, including acetonitrile, 1,4 -dioxane, water, toluene, dichloromethane, tetrahydrofuran, ethanol, PBS buffer (pH=5; 7; 7.4, 9), PBS buffer (pH=7.4) with 1% BSA, and ethyl acetate. Photostability measurements were performed with 5 μM solution of in PBS buffer (pH=7). The samples were exposed to a 4 W light-emitting diode emitting at 450 nm, and emission spectra were recorded.

signal location in HA–M2R-expressing cells (HA–M2R; living HEK 293T): concentrated in the membranes of cells
fluorescence in control (M2R-negative) cells (HA–M2R; non-transfected HEK 293T): fluorescence is lacking
mode of antagonism of carbachol-induced G protein activation (M2R; TRUPATH GoA assay): competitive antagonists
Log(IC50) ± SD (M), carbachol-induced GoA protein activation (M2R; log10 of IC50 (negative values), HEK 293T, compound 20 min, then 10 μM carbachol 15 min, Hill-slope = 1, n = 3): –7.39 ± 0.09 M
Ki (hM2R): 2.4 ± 0.4 nM
photostability: irradiation time to half of the original fluorescence intensity ([1]; PBS (pH 7), 5 μM, 4 W, 450 nm light): 10 min
Stokes shift ([1]; in acetonitrile): 27 nm
absorption maximum ([1]; in acetonitrile): 520 nm
brightness ([1]; in acetonitrile): 8501
fluorescence maximum ([1]; in acetonitrile): 547 nm
molar extinction coefficient (ε) ([1]; in acetonitrile): 42504.9 M^–1 cm^–1
fluorescence quantum yield (Φf) ([1]; in acetonitrile, OG488-NHS as reference): 0.20
SMILES: O=C(CCOCCOCCNC(=O)c1ccc(-c2c3cc(F)c(=O)cc-3oc3cc(O)c(F)cc23)c(C(=O)O)c1)NCCOCCOCCNc1ccccc1C(=O)N1CCC(N2CCC(Cc3ccc(S(=O)(=O)c4cccc(Cl)c4)cc3)CC2)CC1 [Compound 33]

Reference: PMC11995211, “Design, Synthesis, and Evaluation of a New Fluorescent Ligand for the M2 Muscarinic Acetylcholine Receptor” (ACS Medicinal Chemistry Letters, 2025)
